Laboratory results from patent US20260041653A1, “AN HDAC INHIBITOR FOR TREATING CANCER WITH A MODIFIED STK11 ACTIVITY OR EXPRESSION” (Tango Therapeutics, Inc., priority 2022, published 2026).

System: MC38_sgStk11 tumor
Assay: Anti-tumor efficacy in murine subcutaneous MC38_sgStk11 tumor model
Type: in vivo, Mus musculus
Details: for T/C / TGI %: day 11
Method: Summary: An in vivo anti-tumor efficacy of double combination treatment of Anti-PD1 and HDAC1,2-selective inhibitor in a murine subcutaneous MC38_sgStk11 tumor model in […] mice was performed.
96 mice plus 39 spare mice of the species: Mus musculus: strain: C57BL/6; age 8-10 weeks; sex: female; and body weight: 16.9-20.0 g
The MC38_sgStk11 tumor cells were maintained in vitro as a monolayer culture in DMEM+2 mM glutamine supplemented with about 10% heat inactivated fetal bovine serum, about 100 U/ml penicillin and 100 μg/ml streptomycin at about 37° C. in an atmosphere of about 5% CO2 in air. The tumor cells were routinely sub-cultured twice weekly by trypsin-EDTA treatment. The cells growing in an exponential growth phase were harvested and counted for tumor inoculation.
Each mouse was inoculated subcutaneously at the right upper flank with MC38_sgStk11 tumor cells (0.5×106) in 0.1 ml of PBS for tumor development. Treatments were started on day 4 after tumor inoculation when the average tumor size reached 52 mm^3. The animals were assigned into groups according to a sorting standard operating procedures based upon their tumor volumes. Each group consisted of 8 tumor bearing mice. The testing article was administrated to the mice according to the predetermined regimen as shown in the experimental design table (Table 1-1).
All the procedures related to animal handling, care and the treatment in the study were performed according to the guidelines approved by the Institutional Animal Care and Use Committee (IACUC) of vendor following the guidance of the Association for Assessment and Accreditation of Laboratory Animal Care (AAALAC). At the time of routine monitoring, the animals were daily checked for any effects of tumor growth and treatments on normal behavior such as mobility, food and water consumption, body weight gain/loss (body weights were measured three times per week), eye/hair matting and any other abnormal effect as stated in the protocol. Death and observed clinical signs were recorded on the basis of the numbers of animals within each subset.
A primary endpoint was to see if the tumor growth could be delayed or mice could be cured. Tumor size was measured three times per week in two dimensions using a caliper, and the volume was expressed in mm3 using the formula: V=0.5 a×b2 where a and b are the long and short diameters of the tumor, respectively. The T/C value (in percent) is an indication of antitumor effectiveness; T and C are the mean volume of the treated and control groups, respectively, on a given day. TGI is calculated for each group using the formula: TGI (%)=[1−(Ti−T0)/(Vi−V0)]×100; Ti is the average tumor volume of a treatment group on a given day, T0 is the average tumor volume of the treatment group on the day of treatment start, Vi is the average tumor volume of the vehicle control group on the same day with Ti, and V0 is the average tumor volume of the vehicle group on the day of treatment start.
Statistical analysis of difference in the tumor volume among the groups were conducted on the data obtained at the best therapeutic time point at the day 11 after the start of treatment. A one-way ANOVA was performed for comparisons between groups. The survival analysis between groups was carried out with Kaplan-Meier test. p<0.05 was considered to be statistically significant.

[1] = Gr 2: Compound I 3 mg/kg PO QD + Anti-IgG2a 10 mg/kg IP BIW
[2] = Gr 3: Compound I 10 mg/kg PO QD + Anti-IgG2a 10 mg/kg IP BIW
[3] = Gr 4: Compound I 30 mg/kg PO QD + Anti-IgG2a 10 mg/kg IP BIW
[4] = Gr 5: Compound I 75 mg/kg PO QD + Anti-IgG2a 10 mg/kg IP BIW

With C[S@@](=N)(=O)c1ccc(C(=O)Nc2cc(-c3ccc(F)cc3)ccc2N)cc1 [Compound I, (R)—N-(4-amino-4′-fluoro-[1,1′-biphenyl]-3-yl)-4-(S-methylsulfonimidoyl)benzamide] the “CR (complete regression)” value [1] was 0.0%, the “ORR (CR + PR)” value [1] was 0.0% and the “PR (partial regression)” value [1] was 0.0%. For the same molecule, the “Tumor Volume” value (Gr 2: Compound I 3 mg/kg PO QD + Anti-IgG2a 10 mg/kg IP BIW, day 0 of treatment) was 52 ± 2 mm^3, the “Tumor Volume” value (Gr 2: Compound I 3 mg/kg PO QD + Anti-IgG2a 10 mg/kg IP BIW, day 2 of treatment) was 208 ± 6 mm^3 and the “Tumor Volume” value (Gr 2: Compound I 3 mg/kg PO QD + Anti-IgG2a 10 mg/kg IP BIW, day 4 of treatment) was 489 ± 23 mm^3. The “Tumor Volume” value (Gr 2: Compound I 3 mg/kg PO QD + Anti-IgG2a 10 mg/kg IP BIW, day 7 of treatment) was 925 ± 98 mm^3, the “Tumor Volume” value (Gr 2: Compound I 3 mg/kg PO QD + Anti-IgG2a 10 mg/kg IP BIW, day 9 of treatment) was 1439 ± 130 mm^3 and the T/C [1] was 98.7%. The TGI % [1] was 1.3%, the “Tumor Volume” value (Gr 2: Compound I 3 mg/kg PO QD + Anti-IgG2a 10 mg/kg IP BIW, day 11 of treatment) was 2105 ± 184 mm^3 and the “Tumor Volume” value (Gr 2: Compound I 3 mg/kg PO QD + Anti-IgG2a 10 mg/kg IP BIW, day 14 of treatment) was 2876 ± 196 mm^3. The “Tumor Volume” value (Gr 2: Compound I 3 mg/kg PO QD + Anti-IgG2a 10 mg/kg IP BIW, day 16 of treatment) was 3215 ± 79 mm^3, the “CR (complete regression)” value [2] was 0.0% and the “ORR (CR + PR)” value [2] was 0.0%. For the same molecule, the “PR (partial regression)” value [2] was 0.0%, the “Tumor Volume” value (Gr 3: Compound I 10 mg/kg PO QD + Anti-IgG2a 10 mg/kg IP BIW, day 0 of treatment) was 52 ± 2 mm^3 and the “Tumor Volume” value (Gr 3: Compound I 10 mg/kg PO QD + Anti-IgG2a 10 mg/kg IP BIW, day 2 of treatment) was 213 ± 10 mm^3. For the same molecule, the “Tumor Volume” value (Gr 3: Compound I 10 mg/kg PO QD + Anti-IgG2a 10 mg/kg IP BIW, day 4 of treatment) was 473 ± 38 mm^3, the “Tumor Volume” value (Gr 3: Compound I 10 mg/kg PO QD + Anti-IgG2a 10 mg/kg IP BIW, day 7 of treatment) was 735 ± 82 mm^3 and the “Tumor Volume” value (Gr 3: Compound I 10 mg/kg PO QD + Anti-IgG2a 10 mg/kg IP BIW, day 9 of treatment) was 1059 ± 167 mm^3. The T/C [2] was 65.8%, the TGI % [2] was 35.0% and the “Tumor Volume” value (Gr 3: Compound I 10 mg/kg PO QD + Anti-IgG2a 10 mg/kg IP BIW, day 11 of treatment) was 1403 ± 270 mm^3. The “Tumor Volume” value (Gr 3: Compound I 10 mg/kg PO QD + Anti-IgG2a 10 mg/kg IP BIW, day 14 of treatment) was 1923 ± 343 mm^3, the “Tumor Volume” value (Gr 3: Compound I 10 mg/kg PO QD + Anti-IgG2a 10 mg/kg IP BIW, day 16 of treatment) was 2101 ± 176 mm^3 and the “Tumor Volume” value (Gr 3: Compound I 10 mg/kg PO QD + Anti-IgG2a 10 mg/kg IP BIW, day 18 of treatment) was 2570 ± 205 mm^3. For the same molecule, the “Tumor Volume” value (Gr 3: Compound I 10 mg/kg PO QD + Anti-IgG2a 10 mg/kg IP BIW, day 21 of treatment) was 3275 ± 64 mm^3, the “CR (complete regression)” value [3] was 0.0% and the “ORR (CR + PR)” value [3] was 0.0%. For the same molecule, the “PR (partial regression)” value [3] was 0.0%, the “Tumor Volume” value (Gr 4: Compound I 30 mg/kg PO QD + Anti-IgG2a 10 mg/kg IP BIW, day 0 of treatment) was 52 ± 2 mm^3 and the “Tumor Volume” value (Gr 4: Compound I 30 mg/kg PO QD + Anti-IgG2a 10 mg/kg IP BIW, day 2 of treatment) was 212 ± 14 mm^3. The “Tumor Volume” value (Gr 4: Compound I 30 mg/kg PO QD + Anti-IgG2a 10 mg/kg IP BIW, day 4 of treatment) was 484 ± 37 mm^3, the “Tumor Volume” value (Gr 4: Compound I 30 mg/kg PO QD + Anti-IgG2a 10 mg/kg IP BIW, day 7 of treatment) was 734 ± 64 mm^3 and the “Tumor Volume” value (Gr 4: Compound I 30 mg/kg PO QD + Anti-IgG2a 10 mg/kg IP BIW, day 9 of treatment) was 883 ± 84 mm^3. For the same molecule, the T/C [3] was 49.5%, the TGI % [3] was 51.8% and the “Tumor Volume” value (Gr 4: Compound I 30 mg/kg PO QD + Anti-IgG2a 10 mg/kg IP BIW, day 11 of treatment) was 1055 ± 101 mm^3. For the same molecule, the “Tumor Volume” value (Gr 4: Compound I 30 mg/kg PO QD + Anti-IgG2a 10 mg/kg IP BIW, day 14 of treatment) was 1481 ± 146 mm^3, the “Tumor Volume” value (Gr 4: Compound I 30 mg/kg PO QD + Anti-IgG2a 10 mg/kg IP BIW, day 16 of treatment) was 1977 ± 272 mm^3 and the “Tumor Volume” value (Gr 4: Compound I 30 mg/kg PO QD + Anti-IgG2a 10 mg/kg IP BIW, day 18 of treatment) was 2344 ± 368 mm^3. The “Tumor Volume” value (Gr 4: Compound I 30 mg/kg PO QD + Anti-IgG2a 10 mg/kg IP BIW, day 21 of treatment) was 2602 ± 361 mm^3, the “Tumor Volume” value (Gr 4: Compound I 30 mg/kg PO QD + Anti-IgG2a 10 mg/kg IP BIW, day 23 of treatment) was 2794 ± 665 mm^3 and the “Tumor Volume” value (Gr 4: Compound I 30 mg/kg PO QD + Anti-IgG2a 10 mg/kg IP BIW, day 25 of treatment) was 1551 mm^3. For the same molecule, the “Tumor Volume” value (Gr 4: Compound I 30 mg/kg PO QD + Anti-IgG2a 10 mg/kg IP BIW, day 28 of treatment) was 2589 mm^3, the “Tumor Volume” value (Gr 4: Compound I 30 mg/kg PO QD + Anti-IgG2a 10 mg/kg IP BIW, day 30 of treatment) was 3550 mm^3 and the “CR (complete regression)” value [4] was 12.5%. The “ORR (CR + PR)” value [4] was 12.5%.
